US20230346864A1, “Compositions and Methods for Joint Health” (Innophos, LLC, priority 2020, published 2023)

Experiments:
[1] = tested on: potato 5-Lipoxygenase enzyme; assay: 5-LOX inhibition, Lipoxygenase Inhibitor Screening Assay Kit; assay type: biochemical; settings: at 100 μM
Description: Cashew testa extract was tested for 5-LOX inhibition using the Lipoxygenase Inhibitor Screening Assay Kit (available from Cayman Chemical, Ann Arbor, Michigan, US) and potato 5-Lipoxygenase enzyme (available from Cayman Chemical). This kit measures hydroperoxides produced in the lipoxygenation reaction.
The extracts were dissolved in methanol to final working concentrations. 5-LOX enzyme, Chromagen, and Linoleic Acid solutions were prepared immediately before use. Nordihydroguaiaretic acid (‘NDGA’) was used as a positive control. 5-LOX enzyme was added to the test samples and controls and incubated for five minutes at room temperature to allow for enzyme/inhibitor interaction. Linoleic acid substrate was added to the plate to initiate the reaction, and the plate was then shaken at room temperature for 10 minutes. Chromagen was added to visualize the hydroperoxides formed during the reaction and the plate was shaken at room temperature for another five minutes. The absorbance was then read at 492 nm. Percent inhibition of the extract concentration was calculated in comparison to the uninhibited control wells.
Cashew testa extract was tested for its 5-LOX inhibition activity at 10 different concentrations (0.7, 1.5, 3.0, 6.0, 11.9, 15.6, 31.2, 62.5, 125.0 and 250.0 μg/mL).

[2] = tested on: collagen-induced arthritis (CIA) model in rats; assay: CIA rats: arthritis severity index; assay type: in vivo, Sprague—Dawley rats; settings: Methotrexate 0.5 mg/kg; vehicle CIA rats day 10
Text: (§1) Collagen induced arthritis (CIA) in rats was developed and utilized to evaluate efficacy of orally administered cashew skin extract for three weeks post disease induction. The study included seven groups of rats (n=9 rats/group). The rats were purpose bred male Sprague—Dawley rats (7-8 weeks old, Charles River Laboratories Inc., Wilmington, MA). Animals were acclimated for two weeks to achieve the required body weight before being assigned randomly to their respective group. Rats (3/cage) were housed in a polypropylene cage and individually identified by numbers on their tail. Individual cages were identified with a cage card indicating project number, test article, dose level, group, and animal number. Harlan Soft cob bedding (Envigo Tekland 7087, Envigo, Indianapolis, Indiana) was used and changed at least twice/week. Animals were provided with fresh water and rodent chow diet (Teklad 2018, Envigo, Indianapolis, Indiana) ad libitum and housed in a temperature-controlled room (22.2° C.) on a 12-h light-dark cycle throughout the study.
(§2) The study rats were randomized and administered one of seven study articles as noted in Table 4— […]
(§3) Rats were evaluated for arthritis index before injection of a booster dose. […]
(§4) During the in-life period, arthritis severity index, paw thickness, ankle diameter and pain sensitivity were monitored. […]

[3] = tested on: PIIANP; assay: CIA rats: serum PIIANP ELISA; assay type: in vivo, Rat; settings: Methotrexate 0.5 mg/kg
Text: as §1, with “Harlan Soft cob bedding (Envigo Tekland 7087, Envigo, Indianapolis, Indiana) was used and changed at least twice/week. Animals were provided with fresh water and rodent chow diet (Teklad 2018, Envigo, Indianapolis, Indiana) ad libitum and housed in a temperature-controlled room (22.2° C.) on a 12-h light-dark cycle throughout the study.” left out
(§5) During the in-life period, arthritis severity index, paw thickness, ankle diameter and pain sensitivity were monitored. […] Urinary cartilage degradation marker (CTX-II), proinflammatory cytokines (TNF-α, IL-1β, and IL-6), cartilage synthesis marker (PIIANP) and matrix degrading proteases (MMP13) were measured.
ELISA Assay. The presence of PIIANP was measured using the Rat Procollagen Type IIA N-Prop (PIIANP) ELISA kit (MyBiosource, San Diego, California) as follows. […] After the addition of stop solution, the absorbance was read at 450 nm and the concentration of PIIANP calculated based on the absorbance readings of a PIIANP standard curve.

[4] = tested on: CTX-II; assay: CIA rats: urine CTX-II ELISA; assay type: in vivo, Rat; settings: Methotrexate 0.5 mg/kg
Text: as §1
as §5, with “monitored. Urine and serum were collected at the end of study for biomarker analysis.” for “monitored.”
Assay. Rat urine samples were diluted 1:3 and the presence of CTX-II was measured using the Rat CTX-II ELISA kit from Mybiosource as follows. […] After the addition of stop solution, the absorbance was read at 450 nm, multiplied by dilution factor, and the concentration of CTX-II calculated based on the absorbance readings of a CTX-II standard curve.
Creatine—CTX-II amount was normalized to the amount of Creatinine in the urine using a Creatinine Parameter Assay Kit (R&D Systems) as follows. […] Absorbance was read at 492 nm, and Creatinine amount in urine was calculated based on the absorbance readings of a Creatinine standard curve. […]

[5] = tested on: collagen-induced arthritis (CIA) model in rats; assay: CIA rats: paw thickness / paw edema; assay type: in vivo, Sprague—Dawley rats; settings: day 7-day 21; Methotrexate 0.5 mg/kg; vs vehicle treated CIA
Text: as §1, §2, §3, §4

[6] = tested on: collagen-induced arthritis (CIA) model in rats; assay: CIA rats: pain sensitivity (Randall—Selitto probe); assay type: in vivo, Sprague—Dawley rats; settings: Methotrexate 0.5 mg/kg; range over time points
Text: as §1, §2, §3, §4

[7] = tested on: collagen-induced arthritis (CIA) model in rats; assay: CIA rats: ankle diameter; assay type: in vivo, Sprague—Dawley rats; settings: days 7 to 21; Methotrexate 0.5 mg/kg
Text: as §1, §2, §3, §4

[8] = tested on: IL-1β; assay: CIA rats: serum IL-1β ELISA; assay type: in vivo, Rat; settings: Methotrexate 0.5 mg/kg
Text: as §1, with “Harlan Soft cob bedding (Envigo Tekland 7087, Envigo, Indianapolis, Indiana) was used and changed at least twice/week. Animals were provided with fresh water and rodent chow diet (Teklad 2018, Envigo, Indianapolis, Indiana) ad libitum and housed in a temperature-controlled room (22.2° C.) on a 12-h light-dark cycle throughout the study.” left out
as §5, with “measured. […]” for “measured.”
ELISA Assay. The presence of cytokines IL-1β/IL-6/TNF-α was measured using the Rat IL-1β/IL-6/TNF-α Quantikine ELISA kit (R&D Systems, Minneapolis, Minnesota) as follows. […] After the addition of stop solution, the absorbance was read at 450 nm and the concentration of IL-1β/IL-6/TNF-α calculated based on the absorbance readings of an IL-1β/IL-6/TNF-α standard curve.

[9] = tested on: collagen-induced arthritis (CIA) model in rats; assay: CIA rats: ankle joint histopathology (modified Mankin system); assay type: in vivo, Sprague—Dawley rats; settings: Methotrexate 0.5 mg/kg
Text: as §1
During the in-life period, arthritis severity index, paw thickness, ankle diameter and pain sensitivity were monitored. Urine and serum were collected at the end of study for biomarker analysis. Necropsy was carried out on day 22 for all the groups post priming. At necropsy, the ankle joint from each rat was collected for histopathology analysis. Urinary cartilage degradation marker (CTX-II), proinflammatory cytokines (TNF-α, IL-1β, and IL-6), cartilage synthesis marker (PIIANP) and matrix degrading proteases (MMP13) were measured.
Procedures and Evaluations. At necropsy, the ankle joint was carefully dissected out, fixed in 10% buffered formalin, and sent to Nationwide Histology (Veradale, WA, USA) for further histopathology analysis. The fixed specimens were then decalcified with Calci-Clear Rapid for one and a half days and embedded in paraffin. Standardized 5 μm serial sections were obtained from each rat and stained with hematoxylin and eosin (HE) and Safranin 0-fast green to enable evaluation of proteoglycan content. A modified Mankin system (Mankin et al., 1981) was used to score structural and cellular alterations of articular components as indications of disease progression and/or treatment efficacy. The histological analysis was conducted by a certified Pathologist at Nationwide Histology.

CC(Cc1ccc(O)c(O)c1)C(C)Cc1ccc(O)c(O)c1 (centres unmarked) [NDGA, Nordihydroguaiaretic acid]
5-LOX enzyme inhibition [1]: 100%

CN(Cc1cnc2nc(N)nc(N)c2n1)c1ccc(C(=O)N[C@@H](CCC(=O)O)C(=O)O)cc1 [MTX, Methotrexate]
disease onset, day after priming [2]: 14
increase in serum PIIANP compared to CIA+vehicle [3]: 41%
urine CTX-II, cartilage protection vs vehicle treated CIA rats ([4]; normalized with creatinine): 27.2%
urine CTX-II, cartilage protection vs vehicle treated CIA rats ([4]; normalized with protein): 22.9%
urine CTX-II, cartilage protection vs vehicle treated CIA rats ([4]; raw data): up to 53.8%
reduction in paw edema, area under the swelling curve [5]: 90.2%
pain tolerance vs Vehicle treated CIA [6]: 14.1-67.1%
reduction in ankle diameter, area under the curve [7]: 89.1%
reduction in serum level of IL-1β vs CIA rats treated with vehicle [8]: 86.4%
GAG loss, lower than vehicle [9]: 50.7%
bone erosion, lower than vehicle [9]: 71.2%
cartilage destruction, lower than vehicle [9]: 50.7%
inflammation, lower than vehicle [9]: 55.8%
